Laboratory results from patent US20230114241A1, “METHODS OF TREATING EPILEPSY USING THE SAME” (Trevena, Inc., priority 2019, published 2023).

What was measured:
[1] = system: peripheral blood lymphocytes; experiment: Lymphopenia: peripheral blood lymphocyte counts, acute and chronic s.c. dosing; format: in vivo; conditions: c57bl/6 mice
Experimental: Compounds were tested for changes in peripheral blood lymphocytes in C57bl/6 mice. In acute studies, animals (n=5/group) were dosed subcutaneously with test compound at a dose of 3 mg/kg. Animals were sacrificed at specific time points and […] of whole blood was collected in EDTA (K2) Eppendorf tubes. Blood was stored on ice and shipped immediately overnight delivery to Charles River Laboratories for analysis. CRL ran samples through their WBC/differential panel on an Advia 120 instrument. We received peripheral lymphocyte counts (10^3 cells/μl) for each blood sample. Treatment group means were compared to a vehicle treatment group for statistical significance. In chronic studies, animals (n=6-8/group) were dosed subcutaneously for three to seven days with test compound at doses that were at least 5-fold higher than the efficacious dose in pharmacology/behavioral assays. On the last day, animals were sacrificed 45 minutes to 6 hrs after the final dose. Whole blood was collected and analyzed as described for acute studies. […]

[2] = biological target: T1, human sphingosine-1-phosphate receptor 1 (S1P1) (Homo sapiens, UniProt P21453); experiment: β-Arrestin2 recruitment assay (PathHunter), S1P1 CHO-K1 cells; format: cell-based; conditions: for Emax: efficacy normalized to maximum efficacy of fingolimod, read-out: hS1P1 B-arrestin2 SPAN; for EC50: β-arrestin2 recruitment, read-out: hS1P1 B-arrestin2 pEC50 (converted)
In short: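 Agonist-driven β-arrestin2 recruitment measured by β-galactosidase complementation after 60 min compound exposure at 37 °C and 1 h detection at room temperature. Cells: stable CHO-K1 line expressing tagged human S1P1 with EA-β-arrestin2, plated the night before. Data expressed relative to fingolimod.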
Target sequence in this assay (P21453 whole entry): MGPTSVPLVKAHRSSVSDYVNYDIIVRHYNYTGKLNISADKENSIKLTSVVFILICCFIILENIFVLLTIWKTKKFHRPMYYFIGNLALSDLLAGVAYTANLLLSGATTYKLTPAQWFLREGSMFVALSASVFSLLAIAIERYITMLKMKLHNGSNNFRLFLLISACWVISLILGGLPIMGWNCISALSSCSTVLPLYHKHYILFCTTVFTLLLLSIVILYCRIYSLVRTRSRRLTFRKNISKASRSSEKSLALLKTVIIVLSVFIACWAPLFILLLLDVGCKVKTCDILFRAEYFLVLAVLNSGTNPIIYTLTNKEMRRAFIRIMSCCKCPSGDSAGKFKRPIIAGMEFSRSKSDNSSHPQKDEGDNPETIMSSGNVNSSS
Target sequence in this assay (P32121 whole entry partner): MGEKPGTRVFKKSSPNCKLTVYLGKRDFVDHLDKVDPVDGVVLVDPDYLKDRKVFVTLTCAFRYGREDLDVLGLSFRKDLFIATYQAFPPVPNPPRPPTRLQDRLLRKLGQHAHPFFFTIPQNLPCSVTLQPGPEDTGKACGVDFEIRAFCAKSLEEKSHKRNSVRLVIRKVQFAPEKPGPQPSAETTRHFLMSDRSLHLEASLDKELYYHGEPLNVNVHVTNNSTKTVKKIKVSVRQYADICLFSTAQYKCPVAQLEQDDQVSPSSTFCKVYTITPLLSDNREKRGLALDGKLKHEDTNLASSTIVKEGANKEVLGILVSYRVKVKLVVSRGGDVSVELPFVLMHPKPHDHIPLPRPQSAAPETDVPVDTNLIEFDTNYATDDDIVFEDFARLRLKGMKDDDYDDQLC

[3] = biological target: T1, human sphingosine-1-phosphate receptor 1 (S1P1); experiment: Inhibition of cAMP production (HTRF cAMP HiRange), S1P1 CHO-K1 cells; format: cell-based; conditions: for Emax: CHO-K1, efficacy normalized to maximum efficacy of fingolimod, read-out: hS1P1 CAMP SPAN; for EC50: read-out: hS1P1 CAMP pEC50 (converted)
In short: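 Intracellular cAMP changes read by TR-FRET (HTRF HiRange, 1 h room temperature) after 30 min compound exposure at 37 °C. Cells: overnight-plated CHO-K1 stably expressing tagged human S1P1 with EA-β-arrestin2. Responses normalized to fingolimod.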
Target sequence in this assay (P21453 whole entry): as the sequence (P21453 whole entry) above

[4] = CHO-K1, β-arrestin2 recruitment
[5] = inhibition of cAMP production, potency
[6] = inhibition of cAMP production, S1P1

| Structure (SMILES) | Lymphopenia effect (peripheral blood lymphocytes) ([1]; 6 mg/kg sc, 7 days) | Emax [2, 4] [%] | Emax ([3]; inhibition of cAMP production) [%] | EC50 [3, 5] [nM] | also measured |
| --- | --- | --- | --- | --- | --- |
| COc1cccc(-c2noc(-c3ccc4c(c3)nnn4C(C)C)n2)n1 [Compound 19, 5-[3-(6-methoxypyridin-2-yl)-1,2,4-oxadiazol-5-yl]-1-(propan-2-yl)-1H-1,2,3-benzotriazole] | no change: 6 mg/kg, 7 days | < 75 | < 75 | > 316 | EC50 ([2]; potency): < 10000 nM |
| CC(F)(F)CNc1ccc(-c2nnc(-c3ccc4[nH]ncc4c3)o2)cc1C#N [Compound 355, 2-[(2,2-difluoro-propyl)amino]-5-[5-(1H-indazol-5-yl)-1,3,4-oxadiazol-2-yl]benzonitrile] | no change: 6 mg/kg, 7 days | > 75 | > 75 | < 316 | – |
| Cc1ccccc1-c1noc(-c2ccc3c(c2)nnn3C(C)(C)C)n1 [Compound 59, 1-tert-butyl-5-[3-(2-methylphenyl)-1,2,4-oxadiazol-5-yl]-1H-1,2,3-benzotriazole] | no change: 6 mg/kg, 7 days | > 75 | > 75 | < 316 | EC50 ([2]; potency): < 10000 nM |
| Cc1cnccc1-c1nc(-c2ccc3c(ccn3C(C)C)c2)no1 [Compound 142, 3-(1-isopropyl-1H-indol-5-yl)-5-(3-methylpyridin-4-yl)-1,2,4-oxadiazole] | no change: 6 mg/kg, 7 days | – | – | < 316 | – |
| CC(C)n1nnc2cc(-c3nc(-c4ccncc4C(F)(F)F)no3)ccc21 [Compound 455, 1-(propan-2-yl)-5-{3-[3-(trifluoromethyl)pyridin-4-yl]-1,2,4-oxadiazol-5-yl}-1H-1,2,3-benzotriazole] | no change: 6 mg/kg, 7 days | – | – | – | EC50 [3, 6]: < 316 nM |
| CC(F)(F)CNc1ccc(-c2nnc(-c3ccc4[nH]cnc4c3)o2)cc1C#N [Compound 520, 5-[5-(1H-1,3-benzodiazol-5-yl)-1,3,4-oxadiazol-2-yl]-2-[(2,2-difluoro-propyl)amino]benzonitrile] | no change: 6 mg/kg, 7 days | – | – | – | EC50 [3, 6]: < 316 nM |
| CCC1(CC)CC(=O)c2cc(-c3nc(-c4cccnc4OC)no3)ccc2O1 [Compound 147, 2,2-diethyl-6-(3-(2-methoxypyridin-3-yl)-1,2,4-oxadiazol-5-yl)chroman-4-one] | no change: 6 mg/kg, 7 days | – | – | < 316 | – |
| Cc1ccccc1-c1noc(-c2ccc3c(c2)nnn3C(C)C)n1 [Compound 293, 5-[3-(2-methylphenyl)-1,2,4-oxadiazol-5-yl]-1-(propan-2-yl)-1H-1,2,3-benzotriazole] | no change: 6 mg/kg, 7 days | – | – | < 316 | – |
| CC(C)Oc1ccc(-c2nc(-c3ccc4c(c3)nnn4C(C)C)no2)cc1C#N [Compound 22, 2-isopropoxy-5-(3-(1-isopropyl-1H-benzo[d] [1,2,3]triazol-5-yl)-1,2,4-oxadiazol-5-yl)benzonitrile] | – | – | – | – | Lymphopenia effect (peripheral blood lymphocytes) ([1]; 3 mg/kg sc, 7 days): no change: 3 mg/kg, 7 days |
| Cc1ccccc1-c1noc(-c2ccc3c(c2)nnn3CC(C)C)n1 [Compound 96, 5-[3-(2-methylphenyl)-1,2,4-oxadiazol-5-yl]-1-(2-methylpropyl)-1H-1,2,3-benzotriazole] | no change: 6 mg/kg, 7 days | – | – | < 316 | – |
| COc1ccc(-c2noc(-c3ccc4c(c3)nnn4C(C)C)n2)c(C)c1 [Compound 55, 5-(1-isopropyl-1H-benzo[d][1,2,3]triazol-5-yl)-3-(4-methoxy-2-methylphenyl)-1,2,4-oxadiazole] | no change: 6 mg/kg, 7 days | > 75 | > 75 | < 316 | EC50 ([2]; potency): < 10000 nM |
| Cc1cnccc1-c1nc(-c2ccc3c(c2)nnn3C(C)C)no1 [Compound 8, 3-(1-isopropyl-1H-benzo[d][1,2,3]triazol-5-yl)-5-(3-methylpyridin-4-yl)-1,2,4-oxadiazole] | no change: 6 mg/kg, 7 days | – | – | > 316 | – |
| CN1C(=O)CCc2cc(-c3nc(-c4cccnc4)no3)ccc21 [Compound 384, 1-methyl-6-[3-(pyridin-3-yl)-1,2,4-oxadiazol-5-yl]-1,2,3,4-tetrahydroquinolin-2-one] | – | – | – | – | Lymphopenia effect (peripheral blood lymphocytes) ([1]; 3 mg/kg sc, 45 min and 2 hr): no change: 3 mg/kg; 45 min and 2 hr; Emax ([2]; CHO-K1): < 75%; EC50 ([2]; S1P1): > 10000 nM; Emax [3]: > 75%; EC50 [3, 6]: > 316 nM |
| Cc1cnc(-c2nc(-c3ccc4c(c3)nnn4C(C)C)no2)cn1 [Compound 234, 3-(1-isopropyl-1H-benzo[d][1,2,3]triazol-5-yl)-5-(5-methyl-pyrazin-2-yl)-1,2,4-oxadiazole] | no change: 6 mg/kg, 7 days | < 75 | < 75 | > 316 | EC50 ([2]; potency): > 10000 nM |
| CCC1(CC)CC(=O)c2cc(-c3nc(-c4cccnc4)no3)ccc2O1 [Compound 103, 2,2-diethyl-6-[3-(pyridin-3-yl)-1,2,4-oxadiazol-5-yl]-3,4-dihydro-2H-1-benzopyran-4-one] | no change: 6 mg/kg, 7 days | – | – | < 316 | – |
| CCC1(CC)CC(=O)c2cc(-c3nc(-c4ccc(NC(C)=O)cc4OC)no3)ccc2O1 [Compound 531, N-{4-[5-(2,2-diethyl-4-oxo-3,4-dihydro-2H-1-benzopyran-6-yl)-1,2,4-oxadiazol-3-yl]-3-methoxyphenyl} acetamide] | no change: 6 mg/kg, 7 days | – | – | – | Emax ([2]; CHO-K1): > 75%; EC50 ([2]; S1P1): < 10000 nM; Emax [3]: > 75%; EC50 [3, 6]: < 316 nM |
| CC(C)Nc1ccc(-c2nnc(-c3ccc4[nH]cnc4c3)o2)cc1C#N [Compound 356, 5-[5-(1H-1,3-benzodiazol-5-yl)-1,3,4-oxadiazol-2-yl]-2-[(propan-2-yl)amino]benzonitrile] | no change: 6 mg/kg, 7 days | – | – | < 316 | – |
| CC(C)Nc1ccc(-c2ncc(-c3cccnc3)cn2)cc1C#N [Compound 737, 2-(isopropylamino)-5-(5-(pyridin-3-yl)pyrimidin-2-yl)benzonitrile] | – | – | – | – | Lymphopenia effect (change in peripheral blood lymphocytes) ([1]; 6 mg/kg sc, 7 days, vs vehicle): −40% not stat sig: 6 mg/kg, 7 days |
| Cc1ccsc1-c1noc(-c2ccc3c(c2)nnn3C(C)C)n1 [Compound 169, 5-[3-(3-methyl-thiophen-2-yl)-1,2,4-oxadiazol-5-yl]-1-(propan-2-yl)-1H-1,2,3-benzotriazole] | no change: 6 mg/kg, 7 days | > 75 | > 75 | < 316 | EC50 ([2]; potency): < 10000 nM |
